Assay results: patent US20060112494A1, “Method of protecting an animal skin product from metalloproteinase activity” (priority 2004, published 2006)
Like-named read-outs stand apart in the source and are kept apart here.

Legend:
[1] = system: collagenase; settings: for Collagenase Activity/Days 2: day 2; for Collagenase Activity/Days 7: day 7; for Collagenase Activity/Days 1: day 1
[2] = system: Aeromonas salmonicida; design: key to the marks not given beside the values; settings: for Growth/Days 1: day 1; for Growth/Days 2: day 2; for Growth/Days 7: day 7
Procedure: (§1) Nutrient agar amended with Azocoll (a substrate made up of insoluble particles of collagen impregnated with a bright azo dye) was used as the test medium to study collagenase activity. The nutrient agar was prepared and autoclaved and then was cooled to 55° C. Azocol was added to give a final concentration of 0.5%. […] Using a sterile spatula or cork-borer, the middle portion of each plate of about the size of a United States quarter, was scooped out. Fresh nutrient agar-azocoll medium containing no inhibitor was added to replace the scooped out portion of the plate. […] The bacteria were grown overnight on nutrient agar. A suspension of each culture was made in sterile water and used to inoculate the middle portion of each plate. The treated samples were incubated at 30° C. and evaluated after 24 hours, 2 days and 7 days for collagenase activity and also for the growth of the bacteria. The test cultures secreted collagenase into the medium as they grew to degrade the collagen in the azocoll medium, and collagenase activity was determined by visual inspection of the clear zone around the bacteria. All % are by weight percent of the active ingredient.

[3] = system: collagenase
[4] = system: Pseudomonas fluorescens
Procedure: as §1

[5] = Conc. 1.8%, column day 1, footnote d: data collected on day 2
[6] = Conc. 1.8%, column day 2, footnote e: data collected on day 3

## O=C(O)C[C@H](NCCN[C@@H](CC(=O)O)C(=O)O)C(=O)O [Na3EDDS, S,S′-ethylenediamine disuccinic acid]
[1]; Conc. 0.2%
  Collagenase Activity/Days 2: ++++
  Collagenase Activity/Days 7: ++++
[1]; Conc. 0.5%
  Collagenase Activity/Days 1: 0
  Collagenase Activity/Days 7: ++++
[1]; Conc. 0.7%
  Collagenase Activity/Days 1: 0
[1]; Conc. 1%
  Collagenase Activity/Days 1: 0
[1]; Conc. 1.2%
  Collagenase Activity/Days 1: 0
  Collagenase Activity/Days 2: +
  Collagenase Activity/Days 7: ++++
[1]; Conc. 1.3%
  Collagenase Activity/Days 1: 0
  Collagenase Activity/Days 2: 0
[1]; Conc. 1.5%
  Collagenase Activity/Days 1: 0
  Collagenase Activity/Days 2: 0
  Collagenase Activity/Days 7: 0
[1]; Conc. 1.8%
  Collagenase Activity/Days 1: 0
  Collagenase Activity/Days 2: 0
  Collagenase Activity/Days 7: 0
[1]; Conc. 2%
  Collagenase Activity/Days 1: 0
  Collagenase Activity/Days 2: 0
  Collagenase Activity/Days 7: 0
[1]; collagenase produced by the bacteria studied, Table 2
  performance as collagenase inhibitors (summary in words): performed very well as collagenase inhibitors
[2]; Conc. 0.2%
  Growth/Days 1: ++++
  Growth/Days 2: ++++
  Growth/Days 7: ++++
[2]; Conc. 0.5%
  Growth/Days 1: ++++
  Growth/Days 2: ++++
  Growth/Days 7: ++++
[2]; Conc. 0.7%
  Growth/Days 1: ++++
  Growth/Days 2: ++++
  Growth/Days 7: ++++
[2]; Conc. 1%
  Growth/Days 1: ++++
  Growth/Days 2: ++++
  Growth/Days 7: ++++
[2]; Conc. 1.2%
  Growth/Days 1: ++++
  Growth/Days 2: ++++
  Growth/Days 7: ++++
[2]; Conc. 1.3%
  Growth/Days 1: ++++
  Growth/Days 2: ++++
  Growth/Days 7: ++++
[2]; Conc. 1.5%
  Growth/Days 1: ++++
  Growth/Days 2: ++++
  Growth/Days 7: ++++
[2]; Conc. 1.8%
  Growth/Days 1: +++
  Growth/Days 2: ++++
  Growth/Days 7: ++++
[2]; Conc. 2%
  Growth/Days 1: ++
  Growth/Days 2: +++
  Growth/Days 7: +++
[3]; Conc. 0.1%, day 1
  Collagenase Activity/Days 1: ++++
[3]; Conc. 0.1%, day 2
  Collagenase Activity/Days 2: ++++
[3]; Conc. 0.1%, day 7
  Collagenase Activity/Days 7: ++++
[3]; Conc. 0.2%, day 2
  Collagenase Activity/Days 2: ++++
[3]; Conc. 0.2%, day 7
  Collagenase Activity/Days 7: ++++
[3]; Conc. 0.3%, day 1
  Collagenase Activity/Days 1: 0
[3]; Conc. 0.3%, day 2
  Collagenase Activity/Days 2: +++
[3]; Conc. 0.3%, day 7
  Collagenase Activity/Days 7: ++++
[3]; Conc. 0.4%, day 1
  Collagenase Activity/Days 1: 0
[3]; Conc. 0.4%, day 2
  Collagenase Activity/Days 2: ++
[3]; Conc. 0.4%, day 7
  Collagenase Activity/Days 7: ++++
[3]; Conc. 0.5%, day 1
  Collagenase Activity/Days 1: 0
[3]; Conc. 0.5%, day 7
  Collagenase Activity/Days 7: ++++
[3]; Conc. 0.6%, day 1
  Collagenase Activity/Days 1: 0
[3]; Conc. 0.6%, day 2
  Collagenase Activity/Days 2: 0
[3]; Conc. 0.6%, day 7
  Collagenase Activity/Days 7: +
[3]; Conc. 0.7%, day 1
  Collagenase Activity/Days 1: 0
[3]; Conc. 0.8%, day 1
  Collagenase Activity/Days 1: 0
[3]; Conc. 0.8%, day 2
  Collagenase Activity/Days 2: 0
[3]; Conc. 0.8%, day 7
  Collagenase Activity/Days 7: 0
[3]; Conc. 0.9%, day 1
  Collagenase Activity/Days 1: 0
[3]; Conc. 0.9%, day 2
  Collagenase Activity/Days 2: 0
[3]; Conc. 0.9%, day 7
  Collagenase Activity/Days 7: 0
[3]; Conc. 1%, day 1
  Collagenase Activity/Days 1: 0
[3]; Conc. 1.3%, day 1
  Collagenase Activity/Days 1: 0
[3]; Conc. 1.3%, day 2
  Collagenase Activity/Days 2: 0
[3]; Conc. 1.5%, day 1
  Collagenase Activity/Days 1: 0
[3]; Conc. 1.5%, day 2
  Collagenase Activity/Days 2: 0
[3]; Conc. 1.5%, day 7
  Collagenase Activity/Days 7: 0
[3]; [5]
  Collagenase Activity/Days 1: 0^d
[3]; [6]
  Collagenase Activity/Days 2: 0^e
[3]; Conc. 1.8%, day 7 (footnote f)
  Collagenase Activity/Days 7: 0^f
[3]; collagenase produced by the bacteria studied, Table 1
  performance as collagenase inhibitors (summary in words): performed very well as collagenase inhibitors
[4]; Conc. 0.1%, day 1
  Growth/Days 1: ++++
[4]; Conc. 0.1%, day 2
  Growth/Days 2: ++++
[4]; Conc. 0.1%, day 7
  Growth/Days 7: ++++
[4]; Conc. 0.2%, day 1
  Growth/Days 1: ++++
[4]; Conc. 0.2%, day 2
  Growth/Days 2: ++++
[4]; Conc. 0.2%, day 7
  Growth/Days 7: ++++
[4]; Conc. 0.3%, day 1
  Growth/Days 1: ++++
[4]; Conc. 0.3%, day 2
  Growth/Days 2: ++++
[4]; Conc. 0.3%, day 7
  Growth/Days 7: ++++
[4]; Conc. 0.4%, day 1
  Growth/Days 1: ++++
[4]; Conc. 0.4%, day 2
  Growth/Days 2: ++++
[4]; Conc. 0.4%, day 7
  Growth/Days 7: ++++
[4]; Conc. 0.5%, day 1
  Growth/Days 1: ++++
[4]; Conc. 0.5%, day 2
  Growth/Days 2: ++++
[4]; Conc. 0.5%, day 7
  Growth/Days 7: ++++
[4]; Conc. 0.6%, day 1
  Growth/Days 1: ++++
[4]; Conc. 0.6%, day 2
  Growth/Days 2: ++++
[4]; Conc. 0.6%, day 7
  Growth/Days 7: ++++
[4]; Conc. 0.7%, day 1
  Growth/Days 1: ++++
[4]; Conc. 0.7%, day 2
  Growth/Days 2: ++++
[4]; Conc. 0.7%, day 7
  Growth/Days 7: ++++
[4]; Conc. 0.8%, day 1
  Growth/Days 1: ++++
[4]; Conc. 0.8%, day 2
  Growth/Days 2: ++++
[4]; Conc. 0.8%, day 7
  Growth/Days 7: ++++
[4]; Conc. 0.9%, day 1
  Growth/Days 1: ++++
[4]; Conc. 0.9%, day 2
  Growth/Days 2: ++++
[4]; Conc. 0.9%, day 7
  Growth/Days 7: ++++
[4]; Conc. 1%, day 1
  Growth/Days 1: ++++
[4]; Conc. 1%, day 2
  Growth/Days 2: ++++
[4]; Conc. 1%, day 7
  Growth/Days 7: ++++
[4]; Conc. 1.3%, day 1
  Growth/Days 1: ++++
[4]; Conc. 1.3%, day 2
  Growth/Days 2: ++++
[4]; Conc. 1.3%, day 7
  Growth/Days 7: ++++
[4]; Conc. 1.5%, day 1
  Growth/Days 1: ++++
[4]; Conc. 1.5%, day 2
  Growth/Days 2: ++++
[4]; Conc. 1.5%, day 7
  Growth/Days 7: ++++
[4]; [5]
  Growth/Days 1: ++++^d
[4]; [6]
  Growth/Days 2: ++++^e
[4]; Conc. 1.8%, day 7 (footnote f)
  Growth/Days 7: ++++^f
